{"source": "patent US4243678A", "about": "“Acylhydrocarbylaminoalkanoic acids, compositions and uses” (Byk Gulden Lomberg Chemische Fabrik GmbH, priority 1977, dated 1981)", "key": {"mouse": {"tested_on": "mouse", "test": "Determination of toxicity (lethal action on the mouse after intraperitoneal application)", "format": "in vivo", "conditions": "20160 min", "method": "(§1) The toxicity investigations are carried out on female NMRI mice (body weight 22 to 26 g). The animals (5 animals per dose) are given food and water ad lib. Different doses of the substances are administered intraperitoneally. The duration of observation is 14 days. The LD50, i.e. the dose at which 50% of the animals die, is determined graphically from the dose/effect curve."}, "[1]": {"test": "Determination of toxicity (lethal action on the mouse after intraperitoneal application)", "format": "in vivo", "conditions": "in vivo, ip", "method": "as §1"}, "[2]": {"test": "Antihepatotoxic effect: duration of hexobarbital sleep of the rat after liver damage by CCl4", "conditions": "rat, in vivo", "method": "(§2) The compounds to be tested are administered 1 hour prior to the administration of CCl4 orally in a liquid volume of 10 ml/kg.\n(§3) The antihepatotoxic effect of the compounds to be tested (sodium salts in aqueous solution) is determined by the reduction of the prolongation of sleeping period caused by the CCl4 liver cell damage in the groups treated, as compared with the prolongation of the sleeping period of the CCl4 control group (=100%). […]"}, "liver damage by CCl4": {"tested_on": "liver damage by CCl4", "test": "Antihepatotoxic effect: duration of hexobarbital sleep of the rat after liver damage by CCl4", "conditions": "Rattus norvegicus, po", "method": "as §2, §3"}, "[3]": {"test": "Influence on bile secretion (choleresis) of the narcotized rat", "format": "in vivo, rat (male Sprague-Dawley)", "conditions": "in vivo; LD50 mouse i.p. / ED50 rat i.d.; Table II; read-out: TQ (LD50/ED50), bile secretion", "excerpt": "(§4) Male Sprague-Dawley rats (body weight from 250 to 300 g) are narcotized with 1.2 g/kg urethane i.m. Then the abdominal cavity is opened medially, the bile duct is ligatured shortly above the place where it leads into the duodenum and also near to the hepatic duct, and both sections are catheterized towards the liver.\n(§5) As in the rat all the pancreatic ducts lead out into the central section of the bile duct; it is possible in this way to discharge the pancreatic secretion separately from the distal (ligatured) section and the bile separately from the proximal section of the bile duct.\n(§6) The quantities of pancreatic juice and bile juice obtained are measured at intervals of 30 minutes over a period from 2 hours before to 3 hours after the intraduodenal (V. jugularis externa) administration of the compounds to be tested (quantity of liquid administered 5 ml/kg).\n(§7) The body temperature of the animals is maintained at 36° to 38° C. by means of electric blankets and radiation; the temperature is monitored rectally.\n(§8) The liquid volumes of the 30-minute fractions after the administration of the substance are related in each case to the quantity of bile or pancreatic juice secreted prior to the application of the substance (=100%, mean of the last two measurements). The maximum percentage increase in the pancreatic or bile secretion is represented in dependence upon dose, and from this the ED50 is determined by interpolation."}, "bile secretion": {"tested_on": "bile secretion", "test": "Influence on bile secretion (choleresis) of the narcotized rat", "format": "in vivo, rat (male Sprague-Dawley)", "conditions": "0.5 h; narcotized rat, i.d.; liquid volume, 30 min fraction; Table II; read-out: ED50 bile secretion (dose which brings about an increase in the bile secretion by a maximum of 50%)", "excerpt": "as §4, §5, §6, §7, §8"}, "[4]": {"test": "Antiulcerogenic (stomach-protective) action, pylorus ligature and acetylsalicylic acid", "format": "in vivo, rat (female)", "conditions": "in vivo; LD50 mouse i.p. / ED50 rat i.d.; Table IV; read-out: TQ (LD50/ED50), antiulcerogenic action", "method": "(§9) The ulcer provocation is carried out on rats which have been made to fast for 24 hours (female, 180 to 200 g) by ligature of the pylorus (under ether narcosis) and the oral application of 100 mg/10 ml/kg acetylsalicylic acid. The administration of the substances was carried out intraduodenally (2.5 ml/kg) immediately after the ligature of the pylorus. The closure of the wound was carried out by means of Michel clamps. 4 hours after this, the animals were autopsied (while inebriated with ether) by dislocation of the atlas, and the stomach was resected. The stomach, opened longitudinally, is fixed on a cork board and, using a stereomicroscope with an enlargement of 10×, the number and size (=diameter) of any ulcers present were determined. The product of the degree of severity (according to the following scale of points) and the number of ulcers was used as the individual ulcer index.\n(§10) As a measure of antiulcerogenic effect the reduction in the mean ulcer index of each treated group, as compared with that of the control group (=100%), was used."}, "stomach ulcer": {"tested_on": "stomach ulcer", "test": "Antiulcerogenic (stomach-protective) action, pylorus ligature and acetylsalicylic acid", "format": "in vivo, rat (female)", "conditions": "4 h; rat, intraduodenally; Table IV; read-out: ED50 antiulcerogenic action (dose which reduces the mean ulcer index by 50%)", "method": "as §9, §10"}, "pancreatic secretion": {"tested_on": "pancreatic secretion", "test": "Influence on pancreatic secretion of the narcotized rat", "format": "in vivo, rat (male Sprague-Dawley)", "conditions": "0.5 h, narcotized rat, i.d., liquid volume"}, "[5]": {"test": "Influence on pancreatic secretion of the narcotized rat", "format": "in vivo, rat (male Sprague-Dawley)", "conditions": "in vivo, LD50 mouse i.p. / ED50 rat i.d."}, "[6]": {"tested_on": "glucose formation from lactate and pyruvate in isolated perfused liver", "test": "Inhibition of the formation of glucose from lactate and pyruvate in the isolated perfused rat liver", "parameters": "species or system rat (male Sprague-Dawley)", "conditions": "Table XIII", "method": "For this purpose young male Sprague-Dawley rats (160 to 200 g) are used. The rats are kept in cages of up to 5 animals in a temperature-controlled room (23° C.) with a fixed day/night rhythm (12/12 hours).\nFood is withheld from the animals for from 20 to 22 hours prior to the operation. They are allowed to take water ad lib. The operation and the perfusion of the liver are carried out using the technique of R. Scholz et al. [Eur. J. Biochem. 38 (1973) 64 to 72]. The perfusion liquid used is Krebs-Henseleit bicarbonate buffer (pH 7.4), which is saturated with an oxygen/carbon dioxide mixture (95/5) and contains 1.6 mmol/liter of L-lactate and 0.2 mmol/liter of pyruvate. The perfusion liquid is pumped into the liver via a cannula inserted into the portal vein. The effluent perfusion liquid is collected via a cannula inserted into the Vena cava. The liver is perfused for about 2 hours. The test compounds are infused for 16 minutes each from the 32nd to the […] after the perfusion in increasing concentrations (0.02 to 1.00 mmol/liter).\nSamples of the effluent perfusion liquid are collected at one-minute intervals and analyzed for glucose, lactate and pyruvate (using standard enzymatic methods). The percentages shown in Table VIII relate to the condition occurring before and after the administration of the compounds, the changes caused solely by lactate and pyruvate being set as being equal to 100%."}}, "note": "Like-named read-outs stand apart in the source and are kept apart here.", "data": [{"smiles": "C#CC(C)(C)N(CCCC(=O)O)C(=O)c1ccc(Cl)cc1", "note": "[Serial No. 3, N-(p-chloro)benzoyl-4-[(2-methyl-3-butyn-2-yl)amino]butyric acid]", "values": [{"measurement": "LD50", "setting": "mouse; mouse, i.p., Table III", "result": "> 1000", "unit": "mg/kg"}, {"measurement": "LD50 at 336 h", "setting": "[1]; mouse, Table II", "result": "> 1000", "unit": "mg/kg"}, {"measurement": "selectivity ratio", "setting": "[2]; TQ (LD50/ED50), antihepatotoxic effect, LD50 mouse i.p. / ED50 rat p.o., Table III", "result": "> 10"}, {"measurement": "ED50", "setting": "liver damage by CCl4; read-out: ED50 antihepatotoxic effect (dose which shortens the hexobarbital narcosis by 50%)", "result": 100, "unit": "mg/kg"}, {"measurement": "selectivity ratio", "setting": "[3]", "result": "> 40"}, {"measurement": "ED50", "setting": "bile secretion", "result": 25, "unit": "mg/kg"}]}, {"smiles": "COc1ccc(Cl)cc1C(=O)N(CCCCCC(=O)O)c1ccccc1-c1ccccc1", "note": "[Serial No. 30, 6-[5-chloro-2-methoxy-N-(biphenyl-2-yl)benzamido]caproic acid]", "values": [{"measurement": "LD50", "setting": "mouse; mouse i.p., Table V", "result": "> 200", "unit": "mg/kg"}, {"measurement": "LD50", "setting": "mouse; mouse i.p., Table VII", "result": "> 200", "unit": "mg/kg"}, {"measurement": "LD50 at 336 h", "setting": "[1]; mouse, Table IV", "result": "> 200", "unit": "mg/kg"}, {"measurement": "selectivity ratio", "setting": "[2]; TQ LD50/ED25, antihepatotoxic effect, LD50 mouse i.p. / ED25 rat p.o., Table V", "result": "> 20"}, {"measurement": "ED25", "setting": "liver damage by CCl4; read-out: ED25 antihepatotoxic effect (shortens hexobarbital narcosis by 25%)", "result": 10, "unit": "mg/kg"}, {"measurement": "selectivity ratio", "setting": "[4]", "result": "> 20"}, {"measurement": "ED50", "setting": "stomach ulcer", "result": 10, "unit": "mg/kg"}, {"measurement": "ED50", "setting": "pancreatic secretion; 30 min fraction, Table VII, read-out: ED50 pancreatic secretion (dose which brings about an increase in pancreatic secretion of a maximum of 50%)", "result": "< 1", "unit": "mg/kg"}, {"measurement": "selectivity ratio", "setting": "[5]; Table VII, read-out: TQ [LD50/ED50], pancreatic secretion", "result": "> 200"}]}, {"smiles": "CC(C)C(=O)N(CCCC(=O)O)C1CCCc2ccccc21", "note": "(stereo not drawn) [Serial No. 50, 4-[N-(1,2,3,4-tetrahydro-1-naphthyl)isobutyramido]butyric acid]", "values": [{"measurement": "LD50 (i.p.)", "setting": "mouse; mouse, i.p., Table XIII", "result": "> 200", "unit": "mg/kg"}, {"measurement": "LD50 at 336 h", "setting": "[1]; mouse i.p., Table X", "result": "> 200", "unit": "mg/kg"}, {"measurement": "Glucose formation, % change", "setting": "[6]; 0.2 mmol/liter in the perfusate, isolated perfused liver of fasting rats", "result": -33, "unit": "%"}, {"measurement": "ED50 inhibition of formation of glucose from lactate and pyruvate", "setting": "[6]; from 4 concentrations, 0.02 to 1.00 mmol/liter", "result": 97, "unit": "µg/mL"}, {"measurement": "ED50", "setting": "pancreatic secretion; 30 minute fraction, Table X, read-out: ED50 pancreatic secretion (dose which brings about an increase in pancreatic secretion by a maximum of 50%)", "result": "~3", "unit": "mg/kg"}, {"measurement": "selectivity ratio", "setting": "[5]; Table X, read-out: TQ LD50/ED50, pancreatic secretion", "result": "≥ 66.7"}]}]}
